Like-named read-outs stand apart in the source and are kept apart here.
Tests used:
OX1 [1] = molecular target: T1, OX1 (Homo sapiens, UniProt O43613); assay: Orexin-receptor binding ability, [125I]-OX-A, CHO cell membranes expressing OX1; design: expressed in transfected cells; host or cells: CHO cells (membrane preparation); conditions: membranes of recombinant CHO cells, 0.2 nM [125I]-OX-A tracer; read-out: OX1 (IC50)
T1 sequence (O43613 1-425): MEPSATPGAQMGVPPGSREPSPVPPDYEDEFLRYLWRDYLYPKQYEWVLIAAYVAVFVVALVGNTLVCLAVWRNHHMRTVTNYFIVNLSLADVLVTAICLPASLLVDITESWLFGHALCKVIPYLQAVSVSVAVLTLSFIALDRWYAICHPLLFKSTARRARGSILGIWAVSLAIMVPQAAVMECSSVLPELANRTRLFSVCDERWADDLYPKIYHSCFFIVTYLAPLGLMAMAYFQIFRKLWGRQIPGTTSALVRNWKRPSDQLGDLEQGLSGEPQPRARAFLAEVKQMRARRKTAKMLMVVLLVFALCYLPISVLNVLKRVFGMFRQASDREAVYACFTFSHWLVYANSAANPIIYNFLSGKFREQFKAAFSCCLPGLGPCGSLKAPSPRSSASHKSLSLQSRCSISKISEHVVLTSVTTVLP
Experimental: (§1) The assay was carried out using a 96-well Wheat Germ Agglutinin Flash Plate (PerkinElmer). The volume in a single assay well was 100 ul, and the composition of the reaction solution was as follows:
(§2) 25 mM HEPES (pH 7.5), 1 mM CaCl2, 4.5 mM MgCl2, 0.5% BSA (bovine serum albumin), 0.1% sodium azide, 0.05% Tween-20, and 0.2% DMSO.
Cell membranes were prepared from recombinant CHO cells that expressed OX2 or OX1. The cell membranes were used in an amount of 5 μg protein/assay. […] Finally, the radioactivity of each well was measured using a scintillation counter (TopCount, PerkinElmer). The obtained results are shown in terms of IC50 values (nM) in the following table.

OX2 [2] = molecular target: T2, OX2 (Homo sapiens, UniProt O43614); assay: Orexin-receptor binding ability, [125I]-OX-A, CHO cell membranes expressing OX2; design: expressed in transfected cells; host or cells: CHO cells (membrane preparation)
T2 sequence (O43614 1-444): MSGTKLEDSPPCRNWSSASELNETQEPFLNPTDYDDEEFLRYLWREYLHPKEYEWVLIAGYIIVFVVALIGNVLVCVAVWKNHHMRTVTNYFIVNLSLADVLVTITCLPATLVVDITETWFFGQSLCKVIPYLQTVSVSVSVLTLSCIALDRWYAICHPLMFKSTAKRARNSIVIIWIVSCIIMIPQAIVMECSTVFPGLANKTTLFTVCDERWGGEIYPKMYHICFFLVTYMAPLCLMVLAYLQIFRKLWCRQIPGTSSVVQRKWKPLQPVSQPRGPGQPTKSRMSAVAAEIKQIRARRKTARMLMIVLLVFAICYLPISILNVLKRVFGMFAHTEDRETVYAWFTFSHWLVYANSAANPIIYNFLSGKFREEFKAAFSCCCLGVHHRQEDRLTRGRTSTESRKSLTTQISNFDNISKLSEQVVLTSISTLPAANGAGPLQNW
Experimental: as §1, §2
Cell membranes were prepared from recombinant CHO cells that expressed OX2 or OX1. The cell membranes were used in an amount of 5 μg protein/assay. Test compound in various concentrations, and 0.2 nM [^125I]-OX-A as tracer were added to the cell membranes, and then allowed to react at room temperature for 30 minutes. After completion of the reaction, the reaction solution as a whole was discarded, and the wells were then washed once with 200 ul of wash buffer (25 mM HEPES (pH 7.5), 1 mM CaCl2, 5 mM MgCl2, 0.5% BSA, 0.1% sodium azide, 0.05% Tween-20, and 525 mM sodium chloride). Finally, the radioactivity of each well was measured using a scintillation counter (TopCount, PerkinElmer). The obtained results are shown in terms of IC50 values (nM) in the following table.

OX1 [3] = molecular target: T1, OX1; assay: Antagonism PLAP reporter assay, HEK-293 cells expressing human OX1; format: cell-based; design: expressed in transfected cells; host or cells: HEK-293 cell line, expression vector pBabeCLIH; conditions: HEK-293, 1 nM human OX-A; IC50 converted to Ki by Cheng-Prusoff equation
Experimental: (§3) The antagonistic function of the compound of the present invention to prevent the activation of OX2 and OX1 by orexin-A (OX-A), which is a natural peptide agonist, was measured using a cell-based reporter assay. A HEK-293 cell line expressing genetically recombinant human OX2 (accession No. NM_001526.3) or a HEK-293 cell line expressing genetically recombinant human OX1 (accession No. NM_001525.2), which had pBabeCLIH as expression vector, was used. The cells were plated at a density of 10,000 cells/well onto a non-coated 96-well plate in Dulbecco's modified Eagle medium (Sigma Cat No. D6046: 10% v/v heat-inactivated fetal bovine serum was contained). The cells were cultured at 37° C. overnight, so that they could adhere to the plate. On the following day, cells were incubated with a compound of the present invention dissolved in Dulbecco's modified Eagle medium (Sigma Cat No. A8806: 0.1% w/v bovine serum albumin was contained), and added to the cell plate to reach a final concentration of 0.1% dimethyl sulfoxide.
(§4) The thus obtained mixture was incubated at room temperature for 1 hour. Thereafter, human OX-A and forskolin were dissolved in the same medium as described above, which contained fetal bovine serum albumin, and the medium was then added to the cells, resulting in a final concentration of 300 nM forskolin. Subsequently, the cells were cultured at 37° C. for approximately 18 to 24 hours. During the culture, as a result of activation of the orexin receptor and subsequent dose-dependent increase in intracellular calcium concentration, a reporter enzyme, placental alkaline phosphatase (PLAP), was expressed under the control of a CRE x4+VIP promoter in a pBabeCLcre4vPdNN vector and secreted into the culture medium supernatant. On the following day, reporter enzyme activity was detected by mixing 5 ul of the culture medium supernatant with 20 ul of detection buffer (containing 1.34 g/L sodium bicarbonate, 1.27 g/L sodium carbonate and 0.2 g/L magnesium sulfate heptahydrate in water) and 25 ul of Lumi-Phos530 reagent (Wako Pure Chemical Industries Ltd.), followed by incubating the obtained mixture light-protected at room temperature for 2 hours, before performing luminescence measurement (ARVO Reader, PerkinElmer). The Kd value of human OX-A with respect to each receptor was measured by titration from 0 to 300 nM. Then, the IC50 value of the compound of the present invention with respect to the activity of 1 nM human OX-A was converted into a Ki value (nM) using the Cheng-Prusoff equation.

OX2 [4] = molecular target: T2, OX2; assay: Antagonism PLAP reporter assay, HEK-293 cells expressing human OX2; format: cell-based; design: expressed in transfected cells; host or cells: HEK-293 cell line, expression vector pBabeCLIH; conditions: HEK-293, 1 nM human OX-A; IC50 converted to Ki by Cheng-Prusoff equation
Experimental: as §3, §4

[5] = membranes of recombinant CHO cells, 0.2 nM [125I]-OX-A tracer, read-out: OX2 (IC50)

IC50 (OX1 [1])	IC50 (OX2 [2]; [5])	Compound	IC50 (OX2 [2])	Ki (OX1 [3])	Ki (OX2 [4])
7 nM	7 nM	COc1ccc(OCC2(c3ccccc3)CC2C(=O)Nc2ccccc2)cc1OC (stereo not drawn) [Example 1]	–	395 nM	54 nM
57 nM	26 nM	Cc1cnc(OC[C@@]2(c3ccccc3)C[C@H]2C(=O)Nc2ccc(F)cn2)c(C)n1 [Example 65]	–	–	–
74 nM	21 nM	Cc1cnc(OC[C@@]2(c3ccccc3)C[C@H]2C(=O)Nc2ccc(C#N)cn2)c(C)n1 [Example 66]	–	–	–
33 nM	7 nM	Cc1cnc(OC[C@@]2(c3ccccc3)C[C@H]2C(=O)Nc2ccc(Cl)cn2)c(C)n1 [Example 67]	–	–	–
2130 nM	69 nM	CCn1cc(OC[C@@]2(c3ccccc3)C[C@H]2C(=O)Nc2ccccn2)c(C)n1 [Example 69]	–	–	–
1310 nM	45 nM	CCn1cc(OC[C@@]2(c3ccccc3)C[C@H]2C(=O)Nc2ccc(F)cc2)c(C)n1 [Example 71]	–	–	–
682 nM	15 nM	Cc1nn(C)cc1OCC1(c2ccccc2)CC1C(=O)Nc1ccc(Cl)cn1 (stereo not drawn) [Example 83]	–	–	–
59 nM	8 nM	CCn1cc(OC[C@@]2(c3cccc(F)c3)C[C@H]2C(=O)Nc2ccccn2)c(C)n1 [Example 85]	–	–	–
84 nM	12 nM	CCn1cc(OC[C@@]2(c3cccc(F)c3)C[C@H]2C(=O)Nc2ccc(F)cc2)c(C)n1 [Example 88]	–	–	–
> 200 nM	93 nM	CCn1cc(OC[C@@]2(c3cccc(F)c3)C[C@H]2C(=O)Nc2cc(OC)c(F)cn2)c(C)n1 [Example 89]	–	–	–
13 nM	8 nM	CCn1cc(OC[C@@]2(c3cccc(F)c3)C[C@H]2C(=O)Nc2ccc(C#N)cn2)c(C)n1 [Example 90]	–	–	–
> 200 nM	93 nM	CCn1cc(OC[C@@]2(c3cccc(F)c3)C[C@H]2C(=O)Nc2ccnc(F)c2)c(C)n1 [Example 91]	–	–	–
1360 nM	5 nM	COc1cncc(NC(=O)[C@@H]2C[C@@]2(COc2cc(=O)n(C)nc2C)c2ccccc2)c1 [Example 92, (1R,2S)-2-[(1,3-dimethyl-6-oxo-1,6-dihydropyridazin-4-yl)oxymethyl]-N-(5-methoxypyridin-3-yl)-2-phenylcyclopropanecarboxamide]	–	–	–
410 nM	27 nM	Cc1nn(C)c(=O)cc1OC[C@@]1(c2ccccc2)C[C@H]1C(=O)Nc1ccc(F)cc1 [Example 93, (1R,2S)-2-[(1,3-dimethyl-6-oxo-1,6-dihydropyridazin-4-yl)oxymethyl]-N-(4-fluorophenyl)-2-phenylcyclopropanecarboxamide]	–	–	–
771 nM	39 nM	Cc1cc(NC(=O)[C@@H]2C[C@@]2(COc2cc(=O)n(C)nc2C)c2ccccc2)ncc1F [Example 94]	–	–	–
1600 nM	59 nM	Cc1nn(C)c(=O)cc1OC[C@@]1(c2ccccc2)C[C@H]1C(=O)Nc1ccc(Cl)cn1 [Example 95]	–	–	–
132 nM	55 nM	CCn1nc(C)c(OC[C@@]2(c3ccccc3)C[C@H]2C(=O)Nc2ccc(F)cc2)cc1=O [Example 98]	–	–	–
364 nM	22 nM	CCn1cc(CCC2(c3ccccc3)CC2C(=O)Nc2ccc(Cl)cn2)cn1 (stereo not drawn) [Example 102]	–	–	–
101 nM	6 nM	Cc1cc(NC(=O)[C@@H]2C[C@@]2(CCn2nc(C(F)F)nc2C)c2ccccc2)ncc1F [Example 108, (1R,2S)-2-[2-(3-difluoromethyl-5-methyl-1H-1,2,4-triazol-1-yl)ethyl]-N-(5-fluoro-4-methylpyridin-2-yl)-2-phenylcyclopropanecarboxamide]	–	–	–
1330 nM	71 nM	Cc1nc(C(F)F)nn1CC[C@@]1(c2ccccc2)C[C@H]1C(=O)Nc1ccc(F)cn1 [Example 109]	–	–	–
196 nM	36 nM	Cc1nc(C(F)F)nn1CC[C@@]1(c2ccccc2)C[C@H]1C(=O)Nc1ccc(Cl)cn1 [Example 110]	–	–	–
655 nM	41 nM	Cc1nc(C(F)F)nn1CC[C@@]1(c2ccccc2)C[C@H]1C(=O)Nc1ccc(F)cc1 [Example 111]	–	–	–
–	33 nM	Cc1nc(C(F)F)nn1CC[C@@]1(c2ccccc2)C[C@H]1C(=O)Nc1ccc(C#N)cn1 [Example 112]	–	–	–
> 2000 nM	89 nM	COc1nc(C)n(CCC2(c3ccccc3)CC2C(=O)Nc2ccc(Cl)cn2)n1 (stereo not drawn) [Example 116]	–	–	–
456 nM	46 nM	COc1cn(CCC2(c3ccccc3)CC2C(=O)Nc2ccc(Cl)cn2)ccc1=O (stereo not drawn) [Example 117]	–	–	–
2250 nM	55 nM	Cc1csc(NC(=O)[C@@H]2C[C@@]2(CCn2nc(C(F)(F)F)nc2C)c2ccccc2)n1 [Example 124]	–	–	–
266 nM	23 nM	Cc1nc(C2CC2)nn1CC[C@@]1(c2ccccc2)C[C@H]1C(=O)Nc1ccc(C#N)cn1 [Example 127]	–	–	–

Compound	IC50 (OX1 [1])	IC50 (OX2 [2]; [5])	IC50 (OX2 [2])	Ki (OX1 [3])	Ki (OX2 [4])
CCn1cc(OC[C@@]2(c3ccccc3)C[C@H]2C(=O)Nc2ccc(F)cn2)ccc1=O (racemic) [Example 56]	160 nM	–	14 nM	158 nM	9.1 nM
CCn1cc(OC[C@@]2(c3cccc(F)c3)C[C@H]2C(=O)Nc2ccc(F)cn2)c(C)n1 [Example 86]	15 nM	5 nM	–	–	–
CCn1cc(OC[C@@]2(c3cccc(F)c3)C[C@H]2C(=O)Nc2ccc(F)cn2)c(C)n1 [Example 87]	136 nM	21 nM	–	–	–

Reference: patent US20120165339A1, “CYCLOPROPANE DERIVATIVES” (EISAI R&D MANAGEMENT CO., LTD., priority 2010, published 2012)
